Experimental data as given in patent US7572809B2, “Isoquinoline aminopyrazole derivatives” (Hoffmann-La Roche Inc., priority 2005, dated 2009).

biological target: T1, Aurora A kinase (Homo sapiens, UniProt O14965); experiment: IC50 determination for inhibitors of Aurora A kinase (ELISA, GST-Histone H3 substrate); type: biochemical; settings: mutant Aurora A kinase, 30 μM ATP, 40 minutes; read-out: IC50 Aurora A kinase inhibition
T1 sequence (O14965 1-403): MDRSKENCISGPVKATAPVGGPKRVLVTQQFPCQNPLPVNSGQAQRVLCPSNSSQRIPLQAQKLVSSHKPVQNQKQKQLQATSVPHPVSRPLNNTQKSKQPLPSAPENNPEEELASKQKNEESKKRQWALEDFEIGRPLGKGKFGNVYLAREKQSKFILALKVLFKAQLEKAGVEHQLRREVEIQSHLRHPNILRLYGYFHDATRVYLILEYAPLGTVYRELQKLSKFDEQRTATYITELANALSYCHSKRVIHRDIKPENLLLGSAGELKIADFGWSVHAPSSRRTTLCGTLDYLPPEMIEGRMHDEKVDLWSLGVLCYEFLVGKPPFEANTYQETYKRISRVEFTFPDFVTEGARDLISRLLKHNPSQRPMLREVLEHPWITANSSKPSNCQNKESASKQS
Protocol: IC50 Determination for Inhibitors of Aurora A Kinase
Aurora A is a Serine Threonine Kinase Involved in Spindle Assembly and Chromosome Segregation.
The assay is a typically ELISA-type assay where substrate (GST-Histone H3) is coupled to the assay-plate and is phosphorylated by the kinase. Phosphorylation is detected by a mouse anti-Phosphopeptid mAb and an HRP-labeled anti-mouse pAb. The assay is validated for IC50-determination.
Kinase activities were measured by Enzyme-Linked Immunosorbent Assay (ELISA): Maxisorp 384-well plates (Nunc) were coated with recombinant fusion protein comprising residues 1-15 of HistoneH3 fused to the N-terminus of Glutathione-S-Transferase. Plates were then blocked with a solution of 1 mg/mL I-block (Tropix cat# T2015—highly purified form of casein) in phosphate-buffered saline. Kinase reactions were carried out in the wells of the ELISA plate by combining an appropriate amount of mutant Aurora A kinase with test compound and 30 μM ATP. The reaction buffer was […] Kinase Buffer (Cell Signaling cat # 9802) supplemented with 1 μg/mL I-block. Reactions were stopped after 40 minutes by addition of 25 mM EDTA (ethylenediaminetetraacetic acid). After washing, substrate phosphorylation was detected by addition of anti-phospho-Histone H3 (Ser 10) 6G3 mAb (Cell Signaling cat #9706) and sheep anti-mouse pAb-HRP (Amersham cat# NA931V), followed by colorimetric development with TMB (3,3′,5,5′-tetramethylbenzidine from Kirkegaard & Perry Laboratories). After readout of the absorbance, IC50 values were calculated using a non-linear curve fit (XLfit® software (ID Business Solution Ltd., Guilford, Surrey, UK)).

**Q.** Which IC50 does the source give for Cc1ccc(Oc2nc(Nc3cc(C)[nH]n3)cc3ccccc23)cc1 [Example 14, (5-Methyl-1H-pyrazol-3-yl)-(1-p-tolyloxy-isoquinolin-3-yl)-amine] here?
**A.** The IC50 was 66 nM.

**Q.** For Cc1cc(Nc2cc3ccccc3c(Oc3ccccc3Cl)n2)n[nH]1 [Example 23, [1-(2-Chloro-phenoxy)-isoquinolin-3-yl]-(5-methyl-1H-pyrazol-3-yl)-amine], which IC50 is on record?
**A.** Its IC50 is 1660 nM.

**Q.** For CC(=O)Nc1ccc(Oc2nc(Nc3cc(C)[nH]n3)cc3ccccc23)cc1 [Example 59, N-{4-[-3-(5-Methyl-1H-pyrazol-3-ylamino)-isoquinolin-1-yloxy]-phenyl}-acetamide], which IC50 is on record?
**A.** The IC50 was 39 nM.

**Q.** With CC(C)COc1nc(Nc2cc[nH]n2)cc2ccccc12 [Example 99, (1-Isobutoxy-isoquinolin-3-yl)-(1H-pyrazol-3-yl)-amine] as the compound, how does the IC50 read?
**A.** The IC50 was 1460 nM.

**Q.** How did the IC50 turn out when CCOCCOCCOc1nc(Nc2cc[nH]n2)cc2ccccc12 [Example 110, {1-[2-(2-Ethoxy-ethoxy)-ethoxy]-isoquinolin-3-yl}-(1H-pyrazol-3-yl)-amine] was run?
**A.** Its IC50 is 822 nM.

**Q.** With COc1cc2cc(Nc3cc(C)[nH]n3)nc(OC3CCCC3)c2cc1OC [Example 117, (1-Cyclopentyloxy-6,7-dimethoxy-isoquinolin-3-yl)-(5-methyl-1H-pyrazol-3-yl)-amine] as the compound, how does the IC50 read?
**A.** The IC50 was 21 nM.

**Q.** With COc1ccc2c(-c3cnn(C)c3)nc(Nc3cc[nH]n3)cc2c1 [Example 135, [6-Methoxy-1-(1-methyl-1H-pyrazol-4-yl)-isoquinolin-3-yl]-(1H-pyrazol-3-yl)-amine] as the compound, how does the IC50 read?
**A.** The IC50 was 653 nM.

**Q.** Cc1cc(Nc2cc3ccccc3c(-c3ccncc3)n2)n[nH]1 [Example 162, (5-Methyl-1H-pyrazol-3-yl)-(1-pyridin-4-yl-isoquinolin-3-yl)-amine] was tested. Which IC50 did it give?
**A.** Its IC50 is 330 nM.

**Q.** How did the IC50 turn out when COc1ccc2c(-c3ccc4ccccc4c3)nc(Nc3cc(C)[nH]n3)cc2c1 [Example 183, (5-Methyl-1H-pyrazol-3-yl)-(1-naphthalen-2-yl-6-methoxy-isoquinolin-3-yl)-amine] was run?
**A.** Its IC50 is 390 nM.

**Q.** COc1cccc2c(-c3cccc(C#N)c3)nc(Nc3cc(C)[nH]n3)cc12 [Example 201, 3-[3-(5-Methyl-1H-pyrazol-3-ylamino)-5-methoxy-isoquinolin-1-yl]-benzonitrile] was tested. Which IC50 did it give?
**A.** Its IC50 is 47 nM.

**Q.** Which IC50 does the source give for c1ccc2c(-c3ccsc3)nc(Nc3cc[nH]n3)cc2c1 [Example 241, (1H-Pyrazol-3-yl)-(1-thiophen-3-yl-isoquinolin-3-yl)-amine] here?
**A.** The IC50 was 946 nM.

**Q.** c1ccc2c(-c3ccncc3)nc(Nc3cc[nH]n3)cc2c1 [Example 248, (1H-Pyrazol-3-yl)-(1-pyridin-4-yl-isoquinolin-3-yl)-amine] was tested. Which IC50 did it give?
**A.** Its IC50 is 3440 nM.

**Q.** How did the IC50 turn out when COc1ccc2c(-c3ccc4ccccc4c3)nc(Nc3cc[nH]n3)cc2c1 [Example 265, (6-Methoxy-1-naphthalen-2-yl-isoquinolin-3-yl)-(1H-pyrazol-3-yl)-amine] was run?
**A.** Its IC50 is 2970 nM.

**Q.** With COc1ccc2c(Nc3ccc(Br)cc3)nc(Nc3cc(C)[nH]n3)cc2c1 [Example 275, N^1-(4-Bromo-phenyl)-6-methoxy-N^3-(5-methyl-1H-pyrazol-3-yl)-isoquinoline-1,3-diamine] as the compound, how does the IC50 read?
**A.** Its IC50 is 43 nM.

**Q.** With COc1ccc(Nc2nc(Nc3cc[nH]n3)cc3ccccc23)cc1OC [Example 284, N^1-(3,4-Dimethoxy-phenyl)-N^3-(1H-pyrazol-3-yl)-isoquinoline-1,3-diamine] as the compound, how does the IC50 read?
**A.** Its IC50 is 259 nM.

**Q.** Cc1cc(Nc2cc3ccccc3c(Nc3cccnc3)n2)n[nH]1 [Example 292, N^3-(5-methyl-1H-pyrazol-3-yl)-N^1-pyridin-3-yl-isoquinoline-1,3-diamine] was tested. Which IC50 did it give?
**A.** Its IC50 is 241 nM.

**Q.** For Cc1cc(Nc2cc3cc(OCCN4CCOCC4)ccc3c(-c3ccccc3)n2)n[nH]1 [Example 299, (5-Methyl-1H-pyrazol-3-yl)-[6-(2-morpholin-4-yl-ethoxy)-1-phenyl-isoquinolin-3-yl]-amine], which IC50 is on record?
**A.** Its IC50 is 297 nM.

**Q.** How did the IC50 turn out when Cc1cc(Nc2cc3ccccc3c(Sc3ccccc3)n2)n[nH]1 [Example 305, (5-Methyl-1H-pyrazol-3-yl)-(1-phenylsulfanyl-isoquinolin-3-yl)-amine] was run?
**A.** The IC50 was 497 nM.

**Q.** How did the IC50 turn out when COc1ccc2c(Sc3cccc(F)c3)nc(Nc3cc(C)[nH]n3)cc2c1 [Example 311, [1-(3-Fluoro-phenylsulfanyl)-6-methoxy-isoquinolin-3-yl]-(5-methyl-1H-pyrazol-3-yl)-amine] was run?
**A.** The IC50 was 210 nM.

tested on: HCT 116 cells; experiment: Viability assay in HCT 116 cells (CellTiter-Glo); type: cell-based; settings: 120 h; HCT 116 human colon carcinoma cells, 5 days incubation
Protocol: Viability Assay in HCT 116 Cells
A viability assay was performed using the CellTiter-Glo® Luminescent Cell Viability Assay (see Promega Corporation's Technical Bulletin No. 288, pp. 1-11 [revised February, 2004] which is hereby incorporated by reference in its entirety). This assay is a homogeneous method of determining the number of viable cells in culture based on quantitation of the ATP present, an indicator of metabolically active cells. The assay is designed for use with multiwell formats, making it ideal for automated high-throughput screening (HTS), cell proliferation and cytotoxicity assays. The homogeneous assay procedure involves adding a single reagent (containing luciferase, luciferan substrate, and buffer) directly to cells cultured in serum-supplemented medium. Cell washing, removal of medium and multiple pipetting steps are not required. The system detects as few as 15 cells/well in a 384-well format in 10 minutes after adding reagent and mixing.
The homogeneous “add-mix-measure” format results in cell lysis and generation of a luminescent signal proportional to the amount of ATP present. The amount of ATP is directly proportional to the number of cells present in culture. The above-referenced assay generates a “glow-type” luminescent signal, produced by the luciferase reaction, which has a half-life generally greater than five hours, depending on cell type and medium used. The extended half-life eliminates the need to use reagent injectors and provides flexibility for continuous or batch mode processing of multiple plates. The unique homogeneous format avoids errors that may be introduced by other ATP measurement methods that require multiple steps.
HCT 116 cells (human colon carcinoma, ATCC-No. CCl-247) were cultivated in RPMI 1640 medium with GlutaMAX™ I (cell culture media that contains L-Alanyl-L-Glutamine [a stabilized form/source of L-Glutamine] from Invitrogen, Cat-No. 61870-010), 5% Fetal Calf Serum (FCS, Sigma Cat-No. F4135 (FBS)); 100 Units/ml penicillin/100 μg/ml streptomycin (=Pen/Strep from Invitrogen Cat. No. 15140). For the assay the cells were seeded in 384 well plates, 1000 cells per well, in the same medium. The next day the test compounds were added in various concentrations ranging from 30 μM to 0.0015 μM (10 concentrations, 1:3 diluted). After 5 days the viability assay was performed according to the instructions of the manufacturer. In brief: the cell-plate was equilibrated to room temperature for approximately 30 minutes and then the CellTiter-Glo™ reagent (which contains luciferase, luciferan substrate, and buffer) was added. The contents were carefully mixed for 15 minutes to induce cell lysis. After 45 minutes the luminescent signal was measured in Victor 2, (scanning multiwell spectrophotometer, Wallac).
1st. Day: • Medium: RPMI 1640 with GlutaMAX™ I (Invitrogen, Cat-No. 61870), 5% FCS (Sigma Cat.-No. F4135), Pen/Strep (Invitrogen, Cat No. 15140). • HCT116 (ATCC-No. CCl-247): 1000 cells in 60 μl per well of 384 well plate (Greiner 781098, μClear-plate white) • After seeding incubate plates 24 h at 37° C., 5% CO2 2nd. Day: Induction (Treatment with Compounds, 10 Concentrations):
In order to achieve a final concentration of 30 μM as highest concentration 3.5 μl of 10 mM compound stock solution were added directly to 163 μl media. Then step e) of the dilution procedure described below, was followed.
In order to achieve the second highest to the lowest concentrations, a serial dilution with dilution steps of 1:3 was followed according to the procedure (a-e) as described here below: a) for the second highest concentration add 10 μl of 10 mM stock solution of compound to 20 μl dimethylsulfoxide (DMSO) b) dilute 8×1:3 (always 10 μl to 20 μl DMSO) in this DMSO dilution row (results in 9 wells with concentrations from 3333.3 μM to 0.51 μM) c) dilute each concentration 1:47.6 (3.5 μl compound dilution to 163 μl media) […]

**Q.** How did the IC50 turn out when COc1cc2cc(Nc3cc(C)[nH]n3)nc(OC3CCCC3)c2cc1OC [Example 117, (1-Cyclopentyloxy-6,7-dimethoxy-isoquinolin-3-yl)-(5-methyl-1H-pyrazol-3-yl)-amine] was run?
**A.** The IC50 was 666 nM.

**Q.** COc1ccc2c(-c3ccc4ccccc4c3)nc(Nc3cc(C)[nH]n3)cc2c1 [Example 183, (5-Methyl-1H-pyrazol-3-yl)-(1-naphthalen-2-yl-6-methoxy-isoquinolin-3-yl)-amine] was tested. Which IC50 did it give?
**A.** Its IC50 is 4010 nM.

**Q.** COc1ccc2c(Nc3ccc(Br)cc3)nc(Nc3cc(C)[nH]n3)cc2c1 [Example 275, N^1-(4-Bromo-phenyl)-6-methoxy-N^3-(5-methyl-1H-pyrazol-3-yl)-isoquinoline-1,3-diamine] was tested. Which IC50 did it give?
**A.** Its IC50 is 995 nM.
